Measured values from US6967196B1, “Sulfonamide compounds and uses thereof” (Bristol-Myers Squibb Company, priority 1999, dated 2005).
Counter-ions that a name gives are not always drawn. Like-named read-outs stand apart in the source and are kept apart here.

Tested on: amyloid β production in transfected H4 (human neuroglioma) cells stably expressing APP constructs
Assay: In vitro cell-based assay of inhibitors of amyloid β production (ELISA)
Details: transfected H4 cells stably expressing APP, approx. 16 h incubation, amyloid β in medium by ELISA, read-out: ACTIVITY (IC50, inhibition of amyloid β production)
How it was run: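 Plate wt/variant APP cells; ≥6 h later swap to medium + compound (10-100 μM screen); incubate ~16 h; sample medium; Aβ ELISA with C-terminal capture / N-terminal detection Abs; quantify vs Aβ standard curve.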

Row | SMILES | IC50 (Homo sapiens, 16 h) [nM] | IC50 [nM]
1 | O=S(=O)(c1ccc(Cl)cc1)N(Cc1ccccc1OCCC1CCCCN1Cc1ccccc1I)c1cc(F)ccc1F (stereo not drawn) [Example 672, 4-chloro-N-(2,5-difluorophenyl)-N-(2-{2-[1-(2-iodobenzyl)-2-piperidinyl]ethoxy}benzyl)benzenesulfonamide] | 100 to 500 | –
2 | C[C@H](c1ccccc1COC(=O)NCc1ccc2c(c1)OCO2)N(c1cc(F)ccc1F)S(=O)(=O)c1ccc(Cl)cc1 [Example 673, 2-((1R)-1-{[(4-chlorophenyl)sulfonyl]-2,5-difluoroanilino}ethyl)benzyl 1,3-benzodioxol-5-ylmethylcarbamate] | – | 100 to 500
3 | C[C@H](c1ccccc1CCOC(=O)NC1CCCCC1)N(c1cc(F)ccc1F)S(=O)(=O)c1ccc(Cl)cc1 [Example 685, 2-[2-((1R)-1-{3-[2-(1-{[(4-chlorophenyl)sulfonyl]-2,5-difluoroanilino}ethyl)phenyl]ethyl cyclohexylcarbamate] | – | 100 to 500
4 | Cc1cccc(C(=O)NCCCOc2ccccc2C(C)N(c2cc(F)ccc2F)S(=O)(=O)c2ccc(Cl)cc2)c1 (stereo not drawn) [Example 687] | – | 100 to 500
5 | O=[N+]([O-])c1ccc([S+]([O-])CCCOc2ccccc2CN(c2cc(F)ccc2F)S(=O)(=O)c2ccc(Cl)cc2)cc1 (stereo not drawn) [Example 689, 4-chloro-N-(2,5-difluorophenyl)-N-(2-{3-[(4-nitrophenyl)sulfinyl]propoxy}benzyl)benzenesulfonamide] | 100 to 500 | –
6 | C[C@H](c1ccc(F)cc1COC(=O)NCc1ccco1)N(c1cc(F)ccc1F)S(=O)(=O)c1ccc(Cl)cc1 [Example 691, 2-((1R)-1-{[(4-chlorophenyl)sulfonyl]-2,5-difluoroanilino}ethyl)-5-fluorobenzyl 2-furylmethylcarbamate] | – | 100 to 500
7 | CC(c1ccccc1OCCCN(C)S(=O)(=O)c1ccc(I)cc1)N(c1cc(F)ccc1F)S(=O)(=O)c1ccc(Cl)cc1 (stereo not drawn) [Example 692, 4-chloro-N-(2,5-difluorophenyl)-N-[1-(2-{3-[[(4-iodophenyl)sulfonyl](methyl)amino]propoxy}phenyl)ethyl]benzenesulfonamide] | 100 to 500 | –
8 | CC(C)NC(=O)N(C)CCOc1ccccc1C(C)N(c1cc(F)ccc1F)S(=O)(=O)c1ccc(Cl)cc1 (stereo not drawn) [Example 695, 4-chloro-N-(2,5-difluorophenyl)-N-[1-(2-{2-[[(isopropylamino)carbonyl](methyl)amino]ethoxy}phenyl)ethyl]benzenesulfonamide] | 100 to 500 | –
9 | CCN(CC)C(=O)N(CC)CCOc1ccccc1C(C)N(c1cc(F)ccc1F)S(=O)(=O)c1ccc(Cl)cc1 (stereo not drawn) [Example 698, 4-chloro-N-[1-(2-{2-[[(diethylamino)carbonyl](ethyl)amino]ethoxy}phenyl)ethyl]-N-(2,5-difluorophenyl)benzenesulfonamide] | 100 to 500 | –
10 | CC(c1ccccc1OCCN(C)S(=O)(=O)CC(F)(F)F)N(c1cc(F)ccc1F)S(=O)(=O)c1ccc(Cl)cc1 (stereo not drawn) [Example 701, 4-chloro-N-(2,5-difluorophenyl)-N-{1-[2-(2-{methyl[(2,2,2-trifluorophenyl)sulfonyl]amino}ethoxy)phenyl]ethyl}benzenesulfonamide] | – | 100 to 500
11 | O=S(=O)(c1ccc(Cl)cc1)N(Cc1ccccc1OCCC[S+]([O-])c1ccccc1)c1cc(F)ccc1F (stereo not drawn) [Example 702, 4-chloro-N-(2,5-difluorophenyl)-N-{2-[3-(phenylsulfinyl)propoxy]benzyl}benzenesulfonamide] | 100 to 500 | –
12 | O=C1CCCC(=O)N1CCCOc1ccccc1CN(c1cc(F)ccc1F)S(=O)(=O)c1ccc(Cl)cc1 [Example 704, 4-chloro-N-(2,5-difluorophenyl)-N-{2-[3-(2,6-dioxo-1-piperidinyl)propoxy]benzyl}benzenesulfonamide] | 100 to 500 | –
13 | O=S(=O)(c1ccc(Cl)cc1)N(Cc1ccccc1OCCCN1CCCCC1)c1ccc(Cl)cc1Cl [Example 706, 4-chloro-N-(2,4-dichlorophenyl)-N-{2-[3-(1-piperidinyl)propoxy]benzyl}benzenesulfonamide hydrochloride] | 100 to 500 | –
14 | CCN(CCOc1ccccc1C(C)N(c1cc(F)ccc1F)S(=O)(=O)c1ccc(Cl)cc1)C(=O)NC(C)(C)C (stereo not drawn) [Example 709, N-[1-(2-{2-[[(tert-butylamino)carbonyl](ethyl)amino]ethoxy}phenyl)ethyl]-4-chloro-N-(2,5 difluorophenyl)benzenesulfonamide] | 100 to 500 | –
15 | O=S(=O)(c1ccc(Cl)cc1)N(Cc1ccccc1C#CCN1CCCCC1)c1cc(F)ccc1F [Example 711, 4-chloro-N-(2,5-difluorophenyl)-N-{2-[3-(1-piperidinyl)-1-propynyl]benzyl}benzenesulfonamide hydrochloride] | 100 to 500 | –
16 | CCCCC(=O)N(C)CCCOc1ccccc1CN(c1cc(F)ccc1F)S(=O)(=O)c1ccc(Cl)cc1 [Example 717, N-{3-[2-({[(4-chlorophenyl)sulfonyl]-2,5-difluoroanilino}methyl)phenoxy]propyl}-N-methylpentamide] | – | 100 to 500
17 | O=S(=O)(c1ccc(Cl)cc1)N(Cc1ccccc1OCCCN1CCCC1)c1ccccc1 [Example 718, 4-chloro-N-phenyl-N-{2-[3-(1-pyrrolidinyl)propoxy]benzyl}benzenesulfonamide hydrochloride] | 100 to 500 | –

Row | SMILES | IC50 (Homo sapiens, 16 h) [nM] | IC50 [nM]
18 | CC(c1ccccc1OCCN(C)C(=O)NC(C)(C)C)N(c1cc(F)ccc1F)S(=O)(=O)c1ccc(Cl)cc1 (stereo not drawn) [Example 724, N-[1-(2-{2-[[(tert-butylamino)carbonyl](methyl)amino]ethoxy}phenyl)ethyl]-4-chloro-N-(2,5-difluorophenyl)benzenesulfonamide] | 100 to 500 | –
19 | CCN(CCOc1ccccc1C(C)N(c1cc(F)ccc1F)S(=O)(=O)c1ccc(Cl)cc1)C(=O)NC(C)C (stereo not drawn) [Example 725, 4-chloro-N-(2,5-difluorophenyl)-N-{1-[2-(2-{ethyl[(isopropylamino)carbonyl]amino}ethoxy)phenyl]ethyl}benzenesulfonamide] | 100 to 500 | –
20 | CC(C)NC(=O)N(C)CCCOc1ccccc1CN(c1cc(F)ccc1F)S(=O)(=O)c1ccc(Cl)cc1 [Example 734, 4-chloro-N-(2,5-difluorophenyl)-N-(2-{3-[[(isopropylamino)carbonyl](methyl)amino]propoxy}benzyl)benzenesulfonamide] | 100 to 500 | –
21 | CC(c1ccccc1OCCN(C)S(=O)(=O)C(C)C)N(c1cc(F)ccc1F)S(=O)(=O)c1ccc(Cl)cc1 (stereo not drawn) [Example 735, 4-chloro-N-(2,5-difluorophenyl)-N-[1-(2-{2-[(isopropylsulfonyl)(methyl)amino]ethoxy}phenyl)ethyl]benzenesulfonamide] | 100 to 500 | –
22 | O=S(=O)(c1ccc(Cl)cc1)N(Cc1ccccc1OCCCn1ccnc1)c1cc(Cl)ccc1Cl [Example 740, 4-chloro-N-(2,5-dichlorophenyl)-N-{2-[3-(1H-imidazol-1-yl)propoxy]benzyl}benzenesulfonamide hydrochloride] | 100 to 500 | –
23 | O=C(c1ccccc1)N1CCCCC1CCOc1ccccc1CN(c1cc(F)ccc1F)S(=O)(=O)c1ccc(Cl)cc1 (stereo not drawn) [Example 745, N-{2-[2-(1-benzoyl-2-piperidinyl)ethoxy]benzyl}-4-chloro-N-(2,5-difluorophenyl)benzenesulfonamide] | 100 to 500 | –
24 | O=S(=O)(c1ccc(Cl)cc1)N(Cc1ccccc1OCCC1CCCCN1Cc1cc(F)cc(F)c1)c1cc(F)ccc1F (stereo not drawn) [Example 746, 4-chloro-N-(2-{2-[1-(3,5-difluorobenzyl)-2-piperidinyl]ethoxy}benzyl)-N-(2,5-difluorophenyl)benzenesulfonamide] | 100 to 500 | –
25 | O=S(=O)(c1ccc(Cl)cc1)N(Cc1ccccc1OCCCN1CC=CCC1)c1ccccc1 [Example 749, 4-chloro-N-{2-[3-(3,6-dihydro-1(2H)-pyridinyl)propoxy]benzyl}-N-phenylbenzenesulfonamide hydrochloride] | 100 to 500 | –
26 | O=S(=O)(c1ccc(Cl)cc1)N(Cc1ccccc1Cn1ncnn1)c1cc(F)ccc1F [Example 751, 4-chloro-N-(2,5-difluorophenyl)-N-[2-(2H-tetraazol-2-ylmethyl)benzyl]benzenesulfonamide] | 100 to 500 | –
27 | CN(CCCOc1ccccc1CN(c1cc(F)ccc1F)S(=O)(=O)c1ccc(Cl)cc1)C(=O)c1ccc(-c2ccccc2)cc1 [Example 752, N-{3-[2-({[(4-chlorophenyl)sulfonyl]-2,5-difluoroanilino}methyl)phenoxy]propyl}-N-methyl[1,1′-biphenyl]-4-carboxamide] | – | 100 to 500
28 | O=S(=O)(CCOc1ccccc1CN(c1cc(F)ccc1F)S(=O)(=O)c1ccc(Cl)cc1)C1CCCCC1 [Example 754, 4-chloro-N-{2-[2-(cyclohexylfulfonyl)ethoxy]benzyl}-N-(2,5-difluorophenyl)benzenesulfonamide] | – | 100 to 500
29 | CC(c1ccccc1OCCCNC(=O)c1cccc(F)c1)N(c1cc(F)ccc1F)S(=O)(=O)c1ccc(Cl)cc1 (stereo not drawn) [Example 761] | – | 100 to 500
30 | Cc1cccc(C(=O)N(C)CCCOc2ccccc2C(C)N(c2cc(F)ccc2F)S(=O)(=O)c2ccc(Cl)cc2)c1 (stereo not drawn) [Example 766] | – | 100 to 500
31 | CCOc1ccc(C(=O)N(C)CCCOc2ccccc2C(C)N(c2cc(F)ccc2F)S(=O)(=O)c2ccc(Cl)cc2)cc1 (stereo not drawn) [Example 768] | – | 100 to 500
32 | O=S(=O)(c1ccc(Cl)cc1)N(Cc1ccccc1Cn1ccnc1)c1cc(F)ccc1F [Example 772, 4-chloro-N-(2,5-difluorophenyl)-N-[2-(1H-imidazol-1-ylmethyl)benzyl]benzenesulfonamide] | 100 to 500 | –
33 | CC(c1ccccc1OCCCN(C)S(=O)(=O)/C=C/c1ccccc1)N(c1cc(F)ccc1F)S(=O)(=O)c1ccc(Cl)cc1 (stereo not drawn) [Example 773, 4-chloro-N-(2,5-difluorophenyl)-N-(1-{2-[3-(methyl{[(E)-2-phenylethyl]sulfonyl}amino)propoxy]phenyl}ethyl)benzenesulfonamide] | – | 100 to 500
